Test results as given in patent US9636418B2 (priority 2013, dated 2017).
Several values for one entry are separate records, joined by “and”; a condition that tells them apart may be missing. Identical values can stand only once. Like-named read-outs stand apart in the source and are kept apart here.

Tests used:
Assay in all cases: cell-based
hNav1.3 = hNav1.3 (Homo sapiens, UniProt Q9NY46); conditions: IonWorks Quattro; read-out: IC50 Nav1.3
hNav1.4 [1] = biological target: T1, hNav1.4 (Homo sapiens, UniProt P35499); conditions: for IC50: IonWorks Quattro, read-out: IC50 Nav1.4; for Nav1.4/Nav1.7: ratio of IonWorks Quattro IC50 values
hNav1.5 [2] = biological target: T2, hNav1.5 (Homo sapiens, UniProt Q14524); conditions: IonWorks Quattro; read-out: IC50 Nav1.5
hNav1.7 [3] = biological target: T3, hNav1.7 (Homo sapiens, UniProt Q15858); conditions: IonWorks Quattro; read-out: IC50 Nav1.7
hNav1.7 [4] = biological target: T3, hNav1.7; assay type: cell-based; conditions: PatchXpress, tonic block; read-out: PX hNav1.7 Tonic IC50
hNav1.4 [5] = biological target: T1, hNav1.4
hNav1.5 [6] = biological target: T2, hNav1.5

T3 sequence (Q15858 whole entry): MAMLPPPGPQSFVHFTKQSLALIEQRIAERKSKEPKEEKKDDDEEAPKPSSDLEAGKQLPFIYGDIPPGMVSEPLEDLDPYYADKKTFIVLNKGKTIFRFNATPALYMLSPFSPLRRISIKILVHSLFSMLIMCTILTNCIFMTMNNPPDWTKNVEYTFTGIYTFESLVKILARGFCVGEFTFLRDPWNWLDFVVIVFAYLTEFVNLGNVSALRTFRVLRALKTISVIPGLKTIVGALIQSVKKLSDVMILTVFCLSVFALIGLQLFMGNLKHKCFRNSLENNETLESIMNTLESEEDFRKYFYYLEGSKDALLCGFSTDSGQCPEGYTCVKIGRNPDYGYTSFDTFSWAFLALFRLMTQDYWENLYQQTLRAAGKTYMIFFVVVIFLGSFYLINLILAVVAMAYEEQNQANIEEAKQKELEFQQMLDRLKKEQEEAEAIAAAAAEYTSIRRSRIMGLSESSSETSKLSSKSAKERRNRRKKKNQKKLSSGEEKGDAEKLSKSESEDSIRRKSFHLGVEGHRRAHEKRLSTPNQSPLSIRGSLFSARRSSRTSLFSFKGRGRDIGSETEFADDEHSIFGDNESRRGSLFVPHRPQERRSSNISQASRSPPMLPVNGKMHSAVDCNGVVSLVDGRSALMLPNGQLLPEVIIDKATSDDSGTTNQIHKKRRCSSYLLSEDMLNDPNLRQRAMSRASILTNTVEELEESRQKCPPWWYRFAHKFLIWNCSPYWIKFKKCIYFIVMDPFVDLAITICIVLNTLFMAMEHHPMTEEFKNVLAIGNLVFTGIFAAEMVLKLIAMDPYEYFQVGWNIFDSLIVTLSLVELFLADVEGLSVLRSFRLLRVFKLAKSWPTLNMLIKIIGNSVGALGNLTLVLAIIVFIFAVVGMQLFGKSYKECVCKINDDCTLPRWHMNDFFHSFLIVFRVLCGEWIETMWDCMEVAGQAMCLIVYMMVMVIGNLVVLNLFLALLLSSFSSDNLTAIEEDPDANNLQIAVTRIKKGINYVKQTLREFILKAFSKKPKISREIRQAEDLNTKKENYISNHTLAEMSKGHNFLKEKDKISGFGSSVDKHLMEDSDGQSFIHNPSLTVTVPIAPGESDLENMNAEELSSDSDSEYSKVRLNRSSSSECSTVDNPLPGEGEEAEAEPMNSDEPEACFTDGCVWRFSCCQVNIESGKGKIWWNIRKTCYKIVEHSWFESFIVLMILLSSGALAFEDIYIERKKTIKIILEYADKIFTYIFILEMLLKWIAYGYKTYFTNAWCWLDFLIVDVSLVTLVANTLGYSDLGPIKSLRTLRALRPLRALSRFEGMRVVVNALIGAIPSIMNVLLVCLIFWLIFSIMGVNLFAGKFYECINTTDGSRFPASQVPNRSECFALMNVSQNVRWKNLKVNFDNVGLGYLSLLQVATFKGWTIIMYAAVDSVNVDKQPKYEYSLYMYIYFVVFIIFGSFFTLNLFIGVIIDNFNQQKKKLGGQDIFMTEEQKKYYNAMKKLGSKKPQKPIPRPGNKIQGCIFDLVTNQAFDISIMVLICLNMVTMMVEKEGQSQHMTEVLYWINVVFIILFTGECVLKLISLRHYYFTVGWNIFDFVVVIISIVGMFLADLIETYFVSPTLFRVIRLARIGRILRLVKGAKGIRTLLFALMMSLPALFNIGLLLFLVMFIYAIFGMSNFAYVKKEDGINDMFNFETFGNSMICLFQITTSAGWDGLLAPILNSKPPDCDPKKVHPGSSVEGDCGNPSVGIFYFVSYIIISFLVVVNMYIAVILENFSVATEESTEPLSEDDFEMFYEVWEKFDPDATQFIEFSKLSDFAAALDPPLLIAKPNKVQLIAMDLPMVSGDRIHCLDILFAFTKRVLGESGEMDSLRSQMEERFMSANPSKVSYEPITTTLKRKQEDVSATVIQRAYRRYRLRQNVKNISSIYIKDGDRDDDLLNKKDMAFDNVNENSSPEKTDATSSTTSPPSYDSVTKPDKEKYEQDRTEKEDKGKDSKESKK
T2 sequence (Q14524 whole entry): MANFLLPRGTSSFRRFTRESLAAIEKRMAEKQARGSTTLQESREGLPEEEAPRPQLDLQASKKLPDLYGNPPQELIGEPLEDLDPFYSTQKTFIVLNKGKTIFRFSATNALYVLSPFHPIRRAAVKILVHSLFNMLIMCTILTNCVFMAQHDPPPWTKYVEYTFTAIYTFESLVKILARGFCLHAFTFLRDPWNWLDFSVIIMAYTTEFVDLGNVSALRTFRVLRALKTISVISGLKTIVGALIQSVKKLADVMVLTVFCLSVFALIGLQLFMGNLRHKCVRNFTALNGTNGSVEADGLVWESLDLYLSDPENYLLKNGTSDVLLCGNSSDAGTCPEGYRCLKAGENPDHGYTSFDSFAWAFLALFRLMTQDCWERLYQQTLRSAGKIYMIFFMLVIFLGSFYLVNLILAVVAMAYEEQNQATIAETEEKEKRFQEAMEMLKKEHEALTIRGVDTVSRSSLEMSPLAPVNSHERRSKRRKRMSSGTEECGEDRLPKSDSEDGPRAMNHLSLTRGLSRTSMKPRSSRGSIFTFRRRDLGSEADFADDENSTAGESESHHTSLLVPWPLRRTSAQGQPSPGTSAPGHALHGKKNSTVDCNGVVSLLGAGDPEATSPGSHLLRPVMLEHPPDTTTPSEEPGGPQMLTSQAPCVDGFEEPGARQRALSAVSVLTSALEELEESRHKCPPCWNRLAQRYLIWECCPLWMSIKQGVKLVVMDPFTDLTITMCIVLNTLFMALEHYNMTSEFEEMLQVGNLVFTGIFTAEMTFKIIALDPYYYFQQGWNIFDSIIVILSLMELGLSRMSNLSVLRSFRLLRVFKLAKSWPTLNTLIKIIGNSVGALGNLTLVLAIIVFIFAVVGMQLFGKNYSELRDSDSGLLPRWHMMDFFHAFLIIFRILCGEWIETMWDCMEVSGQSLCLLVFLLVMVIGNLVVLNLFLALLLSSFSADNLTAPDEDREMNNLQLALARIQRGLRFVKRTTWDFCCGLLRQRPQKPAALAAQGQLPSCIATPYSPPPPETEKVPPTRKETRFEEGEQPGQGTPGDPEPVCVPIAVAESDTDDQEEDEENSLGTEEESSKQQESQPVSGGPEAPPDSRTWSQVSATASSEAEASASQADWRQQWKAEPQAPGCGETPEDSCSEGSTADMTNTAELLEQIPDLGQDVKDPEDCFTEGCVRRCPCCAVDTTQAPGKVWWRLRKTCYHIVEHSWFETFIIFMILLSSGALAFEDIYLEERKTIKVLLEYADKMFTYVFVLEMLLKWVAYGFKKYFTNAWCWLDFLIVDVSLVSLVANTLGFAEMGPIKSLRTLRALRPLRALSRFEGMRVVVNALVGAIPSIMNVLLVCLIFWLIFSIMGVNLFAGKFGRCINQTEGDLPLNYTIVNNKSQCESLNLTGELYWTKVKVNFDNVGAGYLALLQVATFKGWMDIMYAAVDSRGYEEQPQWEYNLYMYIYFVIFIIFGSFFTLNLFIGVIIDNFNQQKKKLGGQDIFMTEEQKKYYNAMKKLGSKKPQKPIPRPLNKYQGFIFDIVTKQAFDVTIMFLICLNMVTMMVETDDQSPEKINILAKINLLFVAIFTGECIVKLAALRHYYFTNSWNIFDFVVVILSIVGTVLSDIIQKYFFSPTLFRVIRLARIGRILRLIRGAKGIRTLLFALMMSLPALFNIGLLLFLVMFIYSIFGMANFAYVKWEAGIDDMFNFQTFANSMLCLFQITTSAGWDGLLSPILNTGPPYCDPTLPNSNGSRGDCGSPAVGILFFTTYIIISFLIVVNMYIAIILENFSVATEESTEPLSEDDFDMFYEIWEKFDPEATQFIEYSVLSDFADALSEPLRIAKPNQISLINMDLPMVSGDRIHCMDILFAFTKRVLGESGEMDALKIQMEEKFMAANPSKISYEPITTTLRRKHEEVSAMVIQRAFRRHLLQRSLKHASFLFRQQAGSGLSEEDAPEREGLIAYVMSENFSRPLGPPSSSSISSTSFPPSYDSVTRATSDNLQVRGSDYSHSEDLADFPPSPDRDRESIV

## CCC[C@@H]1NC(=O)[C@H](Cc2c[nH]c3ccccc23)NC(=O)[C@H](CCCCN)NC(=O)[C@H](CCC(N)=O)NC(=O)[C@@H](NC(=O)[C@@H](N)Cc2ccc(O)cc2)CSSC[C@@H]2NC(=O)[C@@H]3CSSC[C@@H](C(=O)N[C@@H](CCCNC(=N)N)C(=O)N[C@@H](CCCCN)C(=O)N[C@H](C(=O)N[C@H](C(N)=O)[C@@H](C)CC)[C@@H](C)CC)NC(=O)[C@H](Cc4c[nH]c5ccccc45)NC(=O)[C@H](CC(C)C)NC(=O)[C@H](CCCCN)NC(=O)[C@H](CSSC[C@H](NC(=O)[C@H]([C@@H](C)O)NC(=O)[C@H](Cc4c[nH]c5ccccc45)NC1=O)C(=O)N[C@@H](CC(=O)O)C(=O)N[C@@H](CO)C(=O)N[C@@H](CCCCN)C(=O)N[C@@H](CCCNC(=N)N)C(=O)N[C@@H](C)C(=O)N3)NC(=O)[C@H](CCC(=O)O)NC(=O)[C@H](CC(C)C)NC(=O)CNC(=O)[C@H](CCC(=O)O)NC2=O [compound 111]
hNav1.3
  IC50: > 5000 nM
hNav1.4 [1]
  IC50: > 5000 nM
  Nav1.4/Nav1.7: 7
hNav1.5 [2]
  IC50: 9.2 µM
hNav1.7 [3]
  IC50: 690 nM

## CC[C@H](C)[C@H](NC(=O)[C@H](CCCCN)NC(=O)[C@H](CCCNC(=N)N)NC(=O)[C@@H]1CSSC[C@@H]2NC(=O)[C@H](C)NC(=O)[C@H](CCCNC(=N)N)NC(=O)[C@H](CCCCN)NC(=O)[C@H](CO)NC(=O)[C@H](CC(=O)O)NC(=O)[C@@H]3CSSC[C@H](NC(=O)[C@H](CCC(=O)O)NC(=O)[C@H](CC(C)C)NC(=O)CNC(=O)[C@H](CCC(=O)O)NC(=O)[C@H](CSSC[C@H](NC(=O)[C@@H](N)Cc4ccc(O)cc4)C(=O)N[C@@H](CCC(N)=O)C(=O)N[C@@H](CCCCN)C(=O)N[C@@H](Cc4c[nH]c5ccccc45)C(=O)N[C@@H](CCSC)C(=O)N[C@@H](Cc4c[nH]c5ccccc45)C(=O)N[C@@H]([C@@H](C)O)C(=O)N3)NC2=O)C(=O)N[C@@H](CCCCN)C(=O)N[C@@H](CC(C)C)C(=O)N[C@@H](Cc2c[nH]c3ccccc23)C(=O)N1)C(=O)N[C@H](C(=O)N[C@@H](Cc1c[nH]c2ccccc12)C(N)=O)[C@@H](C)CC [compound 113]
hNav1.3
  IC50: > 5000 nM
hNav1.4 [1]
  IC50: > 5000 nM
  Nav1.4/Nav1.7: 30
hNav1.5 [2]
  IC50: 11.1 µM
hNav1.7 [3]
  IC50: 170 nM

## CC[C@H](C)[C@H](NC(=O)[C@@H](NC(=O)[C@H](CCCCN)NC(=O)[C@H](CCCNC(=N)N)NC(=O)[C@@H]1CSSC[C@@H]2NC(=O)[C@H](C)NC(=O)[C@H](CCCNC(=N)N)NC(=O)[C@H](CCCCN)NC(=O)[C@H](CO)NC(=O)[C@H](CC(=O)O)NC(=O)[C@@H]3CSSC[C@H](NC(=O)[C@H](Cc4ccc(C(=O)O)cc4)NC(=O)[C@H](CC(C)C)NC(=O)CNC(=O)[C@H](CCC(=O)O)NC(=O)[C@H](CSSC[C@H](NC(=O)[C@@H](N)Cc4ccc(O)cc4)C(=O)N[C@@H](CCC(N)=O)C(=O)N[C@@H](CCCCN)C(=O)N[C@@H](Cc4c[nH]c5ccccc45)C(=O)N[C@@H](CCSC)C(=O)N[C@@H](Cc4c[nH]c5ccccc45)C(=O)N[C@@H]([C@@H](C)O)C(=O)N3)NC2=O)C(=O)N[C@@H](CCCCN)C(=O)N[C@@H](CC(C)C)C(=O)N[C@@H](Cc2c[nH]c3ccccc23)C(=O)N1)[C@@H](C)CC)C(N)=O [compound 114]
hNav1.3
  IC50: > 5000 nM
hNav1.4 [1]
  IC50: > 5000 nM
  Nav1.4/Nav1.7: 24
hNav1.5 [2]
  IC50: 14.2 µM
hNav1.7 [3]
  IC50: 210 nM

## CC[C@H](C)[C@H](NC(=O)[C@@H](NC(=O)[C@H](CCCCN)NC(=O)[C@H](CCCNC(=N)N)NC(=O)[C@@H]1CSSC[C@@H]2NC(=O)[C@H](C)NC(=O)[C@H](CCCNC(=N)N)NC(=O)[C@H](CCCCN)NC(=O)[C@H](CO)NC(=O)[C@H](CC(=O)O)NC(=O)[C@@H]3CSSC[C@H](NC(=O)[C@H]([C@@H](C)CC)NC(=O)[C@H](CC(C)C)NC(=O)CNC(=O)[C@H](CCC(=O)O)NC(=O)[C@H](CSSC[C@H](NC(=O)[C@@H](N)Cc4ccc(O)cc4)C(=O)N[C@@H](CCC(N)=O)C(=O)N[C@@H](CCCCN)C(=O)N[C@@H](Cc4c[nH]c5ccccc45)C(=O)N[C@@H](CCSC)C(=O)N[C@@H](Cc4c[nH]c5ccccc45)C(=O)N[C@@H]([C@@H](C)O)C(=O)N3)NC2=O)C(=O)N[C@@H](CCCCN)C(=O)N[C@@H](CC(C)C)C(=O)N[C@@H](Cc2c[nH]c3ccccc23)C(=O)N1)[C@@H](C)CC)C(N)=O [compound 118]
hNav1.3
  IC50: 2200 nM
hNav1.4 [1]
  IC50: 1300 nM
  Nav1.4/Nav1.7: 15
hNav1.5 [2]
  IC50: 8.6 µM
hNav1.7 [3]
  IC50: 90 nM

## CC[C@H](C)[C@H](NC(=O)[C@@H](NC(=O)[C@H](CCCCN)NC(=O)[C@H](CCCNC(=N)N)NC(=O)[C@@H]1CSSC[C@@H]2NC(=O)[C@H](C)NC(=O)[C@H](CCCNC(=N)N)NC(=O)[C@H](CCCCN)NC(=O)[C@H](CO)NC(=O)[C@H](CC(=O)O)NC(=O)[C@@H]3CSSC[C@H](NC(=O)[C@H](CC(C)C)NC(=O)[C@H](CC(C)C)NC(=O)CNC(=O)[C@H](CCC(=O)O)NC(=O)[C@H](CSSC[C@H](NC(=O)[C@@H](N)Cc4ccc(O)cc4)C(=O)N[C@@H](CCC(N)=O)C(=O)N[C@@H](CCCCN)C(=O)N[C@@H](Cc4c[nH]c5ccccc45)C(=O)N[C@@H](CCSC)C(=O)N[C@@H](Cc4c[nH]c5ccccc45)C(=O)N[C@@H]([C@@H](C)O)C(=O)N3)NC2=O)C(=O)N[C@@H](CCCCN)C(=O)N[C@@H](CC(C)C)C(=O)N[C@@H](Cc2c[nH]c3ccccc23)C(=O)N1)[C@@H](C)CC)C(N)=O [compound 119]
hNav1.3
  IC50: 2510 nM
hNav1.4 [1]
  IC50: 1000 nM
  Nav1.4/Nav1.7: 14
hNav1.5 [2]
  IC50: 8.3 µM
hNav1.7 [3]
  IC50: 70 nM

## CC[C@H](C)[C@H](NC(=O)[C@@H](NC(=O)[C@H](CCCCN)NC(=O)[C@H](CCCNC(=N)N)NC(=O)[C@@H]1CSSC[C@@H]2NC(=O)[C@H](C)NC(=O)[C@H](CCCNC(=N)N)NC(=O)[C@H](CCCCN)NC(=O)[C@H](CO)NC(=O)[C@H](CC(=O)O)NC(=O)[C@@H]3CSSC[C@H](NC(=O)[C@H](C(C)C)NC(=O)[C@H](CC(C)C)NC(=O)CNC(=O)[C@H](CCC(=O)O)NC(=O)[C@H](CSSC[C@H](NC(=O)[C@@H](N)Cc4ccc(O)cc4)C(=O)N[C@@H](CCC(N)=O)C(=O)N[C@@H](CCCCN)C(=O)N[C@@H](Cc4c[nH]c5ccccc45)C(=O)N[C@@H](CCSC)C(=O)N[C@@H](Cc4c[nH]c5ccccc45)C(=O)N[C@@H]([C@@H](C)O)C(=O)N3)NC2=O)C(=O)N[C@@H](CCCCN)C(=O)N[C@@H](CC(C)C)C(=O)N[C@@H](Cc2c[nH]c3ccccc23)C(=O)N1)[C@@H](C)CC)C(N)=O [compound 120]
hNav1.3
  IC50: 3370 nM
hNav1.4 [1]
  IC50: 3000 nM
  Nav1.4/Nav1.7: 31
hNav1.5 [2]
  IC50: 7.1 µM
hNav1.7 [3]
  IC50: 100 nM

## CC[C@H](C)[C@H](NC(=O)[C@@H](NC(=O)[C@H](CCCCN)NC(=O)[C@H](CCCNC(=N)N)NC(=O)[C@@H]1CSSC[C@@H]2NC(=O)[C@H](C)NC(=O)[C@H](CCCNC(=N)N)NC(=O)[C@H](CCCCN)NC(=O)[C@H](CO)NC(=O)[C@H](CC(=O)O)NC(=O)[C@@H]3CSSC[C@H](NC(=O)[C@H](CCCNC(N)=O)NC(=O)[C@H](CC(C)C)NC(=O)CNC(=O)[C@H](CCC(=O)O)NC(=O)[C@H](CSSC[C@H](NC(=O)[C@@H](N)Cc4ccc(O)cc4)C(=O)N[C@@H](CCC(N)=O)C(=O)N[C@@H](CCCCN)C(=O)N[C@@H](Cc4c[nH]c5ccccc45)C(=O)N[C@@H](CCSC)C(=O)N[C@@H](Cc4c[nH]c5ccccc45)C(=O)N[C@@H]([C@@H](C)O)C(=O)N3)NC2=O)C(=O)N[C@@H](CCCCN)C(=O)N[C@@H](CC(C)C)C(=O)N[C@@H](Cc2c[nH]c3ccccc23)C(=O)N1)[C@@H](C)CC)C(N)=O [compound 122]
hNav1.3
  IC50: 350 nM
hNav1.4 [1]
  IC50: 500 nM
  Nav1.4/Nav1.7: 15
hNav1.5 [2]
  IC50: 6.8 µM
hNav1.7 [3]
  IC50: 40 nM

## CC[C@H](C)[C@H](NC(=O)CNC(=O)[C@H](CCCCN)NC(=O)[C@H](CCCNC(=N)N)NC(=O)[C@@H]1CSSC[C@@H]2NC(=O)[C@H](C)NC(=O)[C@H](CCCNC(=N)N)NC(=O)[C@H](CCCCN)NC(=O)[C@H](CO)NC(=O)[C@H](CC(=O)O)NC(=O)[C@@H]3CSSC[C@H](NC(=O)[C@H](CCC(=O)O)NC(=O)[C@H](CC(C)C)NC(=O)CNC(=O)[C@H](CCC(=O)O)NC(=O)[C@H](CSSC[C@H](NC(=O)[C@@H](N)Cc4ccc(O)cc4)C(=O)N[C@@H](CCC(N)=O)C(=O)N[C@@H](CCCCN)C(=O)N[C@@H](Cc4c[nH]c5ccccc45)C(=O)N[C@@H](CCSC)C(=O)N[C@@H](Cc4c[nH]c5ccccc45)C(=O)N[C@@H]([C@@H](C)O)C(=O)N3)NC2=O)C(=O)N[C@@H](CCCCN)C(=O)N[C@@H](CC(C)C)C(=O)N[C@@H](Cc2c[nH]c3ccccc23)C(=O)N1)C(N)=O [compound 134]
hNav1.3
  IC50: > 5000 nM
hNav1.4 [1]
  IC50: > 5000 nM
  Nav1.4/Nav1.7: 17 and 13
hNav1.7 [3]
  IC50: 300 nM and 370 nM

## C#CC[C@H](N)C(=O)NCCOCCOCCOCCOCCC(=O)NCCCC[C@@H]1NC(=O)[C@@H]2CSSC[C@H](NC(=O)[C@@H](N)Cc3ccc(O)cc3)C(=O)N[C@@H](CCC(N)=O)C(=O)N[C@@H](CCCCN)C(=O)N[C@@H](Cc3c[nH]c4ccccc34)C(=O)N[C@@H](CCCC)C(=O)N[C@@H](Cc3c[nH]c4ccccc34)C(=O)N[C@@H]([C@@H](C)O)C(=O)N[C@H]3CSSC[C@H](NC(=O)[C@H](CCC(=O)O)NC(=O)[C@H](CC(C)C)NC(=O)CNC1=O)C(=O)N[C@@H](CCCCN)C(=O)N[C@@H](CC(C)C)C(=O)N[C@@H](Cc1c[nH]c4ccccc14)C(=O)N[C@H](C(=O)N[C@@H](CCCNC(=N)N)C(=O)N[C@@H](CCCCN)C(=O)N[C@H](C(=O)N[C@@H](Cc1c[nH]c4ccccc14)C(N)=O)[C@@H](C)CC)CSSC[C@H](NC(=O)[C@H](C)NC(=O)[C@H](CCCNC(=N)N)NC(=O)[C@H](CCCCN)NC(=O)[C@H](CO)NC(=O)[C@H](CC(=O)O)NC3=O)C(=O)N2 [compound 293]
hNav1.7 [4]
  IC50: 570 nM
hNav1.4 [5]; PatchXpress, tonic block, read-out: PX hNav1.4 Tonic IC50
  IC50: 453 nM
hNav1.4 [5]; ratio of PX tonic IC50 values
  Nav1.4/Nav1.7: 1
hNav1.5 [6]; PatchXpress, tonic block, read-out: PX hNav1.5 Tonic IC50
  IC50: 580 nM
hNav1.5 [6]; ratio of PX tonic IC50 values
  Nav1.5/Nav1.7: 1
hNav1.7 [3]
  IC50: 41 nM
